Assay results: patent publication US20090226500A1, “SUTURES AND ANTI-SCARRING AGENTS” (Angiotech Pharmaceuticals, Inc, priority 2006, published 2009)
Read-outs that look alike come from different tables or passages of the source.

How the values were obtained:
[1] = test system: Smooth muscle cells; experiment: Proliferation of smooth muscle cells; format: cell-based; settings: 72 hours, CYQUANT; read-out: IC50 proliferation of smooth muscle cells
Summary of the method: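 Smooth muscle cells at 600 cells/well, exposed to paclitaxel (DMSO stocks 10^−8 to 10^−2 M) in triplicate for 72 h at 37 °C. Proliferation read with CyQUANT GR dye in lysis buffer.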

[2] = test system: IL-8 production by THP-1 cells; experiment: IL-8 production by macrophages; format: cell-based, human; settings: Homo sapiens, read-out: IC50 IL-8 production
Protocol: The human macrophage cell line, THP-1 was plated in a 12 well plate such that each well contains 1×10^6 cells in 2 ml of media containing 10% FCS. Opsonized zymosan was prepared by resuspending 20 mg of zymosan A in 2 ml of ddH2O and homogenizing until a uniform suspension was obtained. Homogenized zymosan was pelleted at 250 g, resuspended in 4 ml of human serum for a final concentration of 5 mg/ml, and incubated in a 37° C. water bath for 20 minutes to enable opsonization. Geldanamycin was prepared in DMSO at a concentration of 10^−2 M and serially diluted 10-fold to give a range of stock concentrations (10^−8 M to 10^−2 M).
THP-1 cells were stimulated to produce IL-8 by the addition of 1 mg/ml opsonized zymosan. Geldanamycin was added to THP-1 cells by directly adding DMSO stock solutions, prepared earlier, at a 1/1000 dilution, to each well. Each drug concentration was tested in triplicate wells. Plates were incubated at 37° C. for 24 hours.
After a 24-hour stimulation, supernatants were collected to quantify IL-8 production. IL-8 concentrations in the supernatants were determined by ELISA using recombinant human IL-8 to obtain a standard curve. A 96-well MAXISORB plate was coated with 100 μL of anti-human IL-8 Capture Antibody diluted in Coating Buffer (0.1M sodium carbonate pH 9.5) overnight at 4° C. The dilution of Capture Antibody used was lot-specific and was determined empirically. Capture antibody was then aspirated and the plate washed 3 times with Wash Buffer (PBS, 0.05% TWEEN-20). Plates were blocked for 1 hour at room temperature with 200 μL/well of Assay Diluent (PBS, 10% FCS pH 7.0). After blocking, plates were washed 3 times with Wash Buffer. Standards and sample dilutions were prepared as follows: (a) sample supernatants were diluted 1/100 and 1/1000; (b) recombinant human IL-8 was prepared at 200 pg/ml and serially diluted to yield as standard curve of 3.1 pg/ml to 200 pg/ml Sample supernatants and standards were assayed in triplicate and were incubated at room temperature for 2 hours after addition to the plate coated with Capture Antibody The plates were washed 5 times and incubated with 100 μL of Working Detector (biotinylated anti-human IL-8 detection antibody+avidin-HRP) for 1 hour at room temperature. Following this incubation, the plates were washed 7 times and 100 μL of Substrate Solution (Tetramethylbenzidine, H2O2) was added to plates and incubated for 30 minutes at room temperature. Stop Solution (2 NH2SO4) was then added to the wells and a yellow color reaction was read at 450 nm with A correction at 570 nm. Mean absorbance was determined from triplicate data readings and the mean background was subtracted. IL-8 concentration values were obtained from the standard curve. […] The IC50 values for the following additional compounds were determined using this assay: IC50 (nM): 17-AAG, 56; mycophenolic acid, 549; resveratrol, 507; rapamycin, 4; 41; SP600125, 344; halofuginone, 641; D-mannose-6-phosphate, 220; epirubicin hydrochloride, 654; topotemay, 257; mithramycin, 33; daunorubicin, 421; celastrol, 490; chromomycin A3, 36

[3] = test system: TNFα production by THP-1 cells; experiment: TNF-alpha production by macrophages; format: cell-based, human; settings: Homo sapiens; THP-1 cells stimulated with opsonized zymosan, 24 hours; read-out: IC50 TNFα production
Summary of the method: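 THP-1 cells (1×10^6 per well, 10% FCS) were stimulated with 1 mg/ml serum-opsonized zymosan and incubated with drug in triplicate for 24 h at 37 °C. TNFα in the supernatants was quantified by sandwich ELISA (HRP/TMB read-out) against a recombinant human TNFα standard curve.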

[4] = test system: IL-1β production by THP-1 cells; experiment: IL-1β production by macrophages; format: cell-based, human; settings: Homo sapiens, read-out: IC50 IL-1β production
[5] = THP-1 cells stimulated with opsonized zymosan, 24 hours

| IC50 [2, 5] [nM] | IC50 [4, 5] [nM] | SMILES | IC50 [1] [nM] | IC50 ([2]; THP-1, 24 h) [nM] | IC50 [3] [nM] | IC50 ([4]; THP-1, 24 h) [nM] |
| --- | --- | --- | --- | --- | --- | --- |
|  |  | CC1=C(O)C(=O)C=C2C1=CC=C1[C@@]2(C)CC[C@@]2(C)[C@@H]3C[C@](C)(C(=O)O)CC[C@]3(C)CC[C@]12C [celastrol] | 493 | 490 | 87 | 23 |
| 549 | 2890 | COc1c(C)c2c(c(O)c1C/C=C(\C)CCC(=O)O)C(=O)OC2 [mycophenolic acid] | 579 |  | 756 |  |
